Results from patent publication US20070004634A1 (Novo Nordisk A/S, priority 1998, published 2007).
Blank lines part the entries; values can stand above or below the compound they belong to. Residues, ends and D or L forms follow the SMILES beside them. No end group written: not given here.

Key:
IR = IR activity (agonist/antagonist) of MBP-peptide fusions, Table 10; test not named; settings: MBP-peptide fusion proteins; one symbol per monomer unit
Insulin receptor = biological target: T1, Insulin receptor (Homo sapiens, UniProt P06213); test: BIAcore competition, IR binding to immobilized insulin
T1 construct: replacing the transmembrane domain and the intracellular domain of IR with constant domains from immunoglobulin Fc or λ subunits; made in house; host or cells: human embryonic kidney 293 cells (Bass et al.)
Description: Flowcell-1 was used for background binding to correct for any non-specific binding. […] The surface was regenerated with 25 mM NaOH.

[1] = system: FDC-P2 cells expressing the IL-3 and human IGF-1R receptors; test: IGF-1 proliferation assay in FDC-P2 cells, agonist format
IGF-1R [2] = biological target: T2, IGF-1R (Homo sapiens, UniProt P08069); test: Phage competition ELISA on IGF-1R; assay type: binding; parameters: included the heterotetrameric (alpha 2-beta 2) extracellular domain of IGF-1R; purchased R&D Systems 391-GR/CF; host or cells: mouse myeloma cell line; settings: phage RP9, RP6, D8B12, D815
Description: Wells were blocked with 4% non-fat milk in PBS for 60 min at room temperature. One hundred microliters of rescued phage were added to each well. […] The labeled antibody was incubated at room temperature for 60 min. After washing, 100 μl of ABTS was added per well and the plates read in a microtiter reader at […]. […] (Site 2). Peptides included RP9 and […]. Phage competition studies were also performed with Site 2-Site 1 dimer peptides containing 6- or 12-amino acid linkers. […] Wells were blocked with 4% non-fat milk in PBS for 60 min at room temperature. One hundred microliters of rescued phage were added to each well. Peptides in varying concentrations were added and the mixture incubated for 2 h at room temperature. […] The labeled antibody was incubated for 60 min at room temperature. After washing, 100 μl of ABTS was added per well and the plates read in a microtiter reader at […]. […] Linker sequences are underlined and shown below.

[3] = system: FDC-P2 cells expressing the IL-3 and human IGF-1R receptors; test: IGF-1 proliferation assay in FDC-P2 cells, antagonist format; settings: for antagonist activity at IGF-1R, in words / EC50: FDC-P2 cells; for FDC-P2 Antagonist: FDC-P2 cell proliferation, antagonist effect; for EC50: read-out: ED50, antagonist activity at IGF-1R, 10 ng/ml IGF-1 test medium
[4] = biological target: T3, soluble human insulin receptor-immunoglobulin heavy chain chimera (sIR-Fc) (Homo sapiens, UniProt P06213); test: TR-FRET competition with biotinylated RP9 (b-RP9) for sIR-Fc; assay type: binding; settings: Hill slope; target sIR-Fc; label b-RP9; TR-FRET
T3 construct: replacing the transmembrane domain and the intracellular domain of IR with constant domains from immunoglobulin Fc or λ subunits; made in house; host or cells: human embryonic kidney 293 cells (Bass et al.)

MCF-7 cells [5] = test: MCF-7 cell proliferation assay, IGF-1R agonist format; assay type: cell-based, human; settings: MCF-7 cell proliferation, agonist effect
Excerpt: ; FIGS. 65A-65F), and were used for subsequent experiments.

MiaPaCa cells [6] = settings: for MiaPaCa Antagonist: MiaPaCa cell proliferation, antagonist effect
MiaPaCa cells [7] = test: MiaPaCa cell proliferation assay, IGF-1R agonist format; assay type: cell-based, human; settings: MiaPaCa cell proliferation, agonist effect
[8] = biological target: T3, soluble human insulin receptor-immunoglobulin heavy chain chimera (sIR-Fc); test: TR-FRET competition with biotinylated S175 (b-S175) for sIR-Fc; assay type: binding; settings: Hill slope, target sIR-Fc, label b-S175
[9] = biological target: T4, soluble HIR ectodomain (sIR) (Homo sapiens, UniProt P06213); test: Fluorescence polarization, competition with FITC-RP9 for sIR; assay type: binding; settings: Hill slope, target sIR, label FITC-RP9
T4 construct: soluble HIR ectodomain (sIR); Kristensen et al., 1998

IGF-1R [10] = biological target: T2, IGF-1R; test: TR-FRET competition with biotinylated-20E2 for rhIGF-1R; settings: TR-FRET (rhIGF-1R, b-20E2) versus FP (sIR-Fc), summary of Table 22
MCF-7 cells [11] = settings: for MCF-7 Antagonist: MCF-7 cell proliferation, antagonist effect
[12] = system: free fat cells (adipocytes); test: Adipocyte / free fat cell (FFC) assay, 3H glucose incorporation into lipid
[13] = biological target: T3, soluble human insulin receptor-immunoglobulin heavy chain chimera (sIR-Fc); test: Fluorescence polarization, competition with FITC-RP9 for sIR-Fc; assay type: binding; settings: for potency / affinity at IR, in words: FP with FITC-RP9, summary of Table 22; for Hill, sIR-Fc, FITC-RP9, FP: Hill slope, target sIR-Fc, label FITC-RP9, fluorescence polarization
[14] = biological target: His-tagged soluble recombinant human IGF-IR (srhIGF-1R-his) (Homo sapiens, UniProt P08069); test: ALPHAScreen competition, b-hIGF-1 binding to srhIGF-1R-his; settings: read-out: Affin.; AlphaScreen assay versus IGF-1
[15] = biological target: T5, insulin receptor construct transfected into 32D cells (Homo sapiens, UniProt P06213); test: IR autophosphorylation assay in IR transfected 32D cells (ELISA); assay type: cell-based; settings: tested as MBP fusion peptides
T5 construct: expressed in transfected cells; host or cells: 32D cells (clone 969)
Description: The IR transfected 32D cells were seeded at […] in 96-well tissue culture plates and incubated overnight at 37° C. […] The culture media was decanted from the cell culture plates, and the diluted samples were added to the cells. The plates were incubated at 37° C. for 30 min. The stimulation medium was decanted from the plates, and cell lysis buffer (50 mM HEPES pH 7.2, 150 mM NaCl, 0.5% Triton X-100, 1 mM AEBSF, 10 KIU/ml aprotinin, 50 μM leupeptin, and 2 mM sodium orthovanadate) was added. The cells were lysed for 30 min.
In the ELISA portion of the assay, the cell lysates were added to the BSA-blocked anti-IR unit mAb (Upstate Biotechnology, Lake Placid, N.Y.) coated ELISA plates. After a 2 h incubation, the plates were washed 6 times with PBST and biotinylated anti-phosphotyrosine antibody (Upstate Biotechnology) is added. After another 2 h incubation, the plates were again washed 6 times. Streptavidin-Eu was then added, and the plates were incubated for 1 h. After washing the plates again, EG&G Wallac enhancement solution (100 mM acetone-potassium hydrogen pthalate, pH 3.2; 15 mM 2-naphtyltrifluoroacetate; 50 mM tri(n-octyl)-phosphine oxide; 0.1% Triton X-100) was added into each well, and the plates were placed onto a shaker for 20 min at RT.

IGF-1R [16] = biological target: T2, IGF-1R; test: TR-FRET dissociation of biotinylated-20E2 from rhIGF-1R; assay type: binding; settings: peptides 100 μM, IGF-1 30 μM
Description: Best fit non-linear regression analysis of the data, was used to determine dissociation rate constants. Each data point represents a single observation. […] Reactions were allowed to reach equilibrium for 6 h at RT.

T2 sequence (P08069 31-736 limits assumed): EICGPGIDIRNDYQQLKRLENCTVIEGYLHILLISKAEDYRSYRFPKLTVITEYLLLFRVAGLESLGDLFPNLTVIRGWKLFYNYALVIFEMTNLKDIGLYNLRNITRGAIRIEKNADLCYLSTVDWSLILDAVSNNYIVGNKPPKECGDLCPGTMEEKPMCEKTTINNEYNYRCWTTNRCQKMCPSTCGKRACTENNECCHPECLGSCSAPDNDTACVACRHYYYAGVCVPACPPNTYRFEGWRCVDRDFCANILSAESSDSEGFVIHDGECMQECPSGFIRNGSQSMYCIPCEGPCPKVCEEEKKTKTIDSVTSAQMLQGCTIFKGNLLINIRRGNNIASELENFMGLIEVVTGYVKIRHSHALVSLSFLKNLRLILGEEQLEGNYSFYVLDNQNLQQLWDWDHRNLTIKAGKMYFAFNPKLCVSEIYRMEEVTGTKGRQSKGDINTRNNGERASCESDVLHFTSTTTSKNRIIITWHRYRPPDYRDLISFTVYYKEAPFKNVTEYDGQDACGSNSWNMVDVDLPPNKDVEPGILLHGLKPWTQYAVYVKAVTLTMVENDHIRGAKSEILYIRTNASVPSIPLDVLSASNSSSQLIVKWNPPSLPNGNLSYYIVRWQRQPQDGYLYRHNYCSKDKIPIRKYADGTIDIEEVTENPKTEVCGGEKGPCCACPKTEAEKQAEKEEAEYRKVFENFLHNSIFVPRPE
T2 sequence (P08069 741-935 limits assumed): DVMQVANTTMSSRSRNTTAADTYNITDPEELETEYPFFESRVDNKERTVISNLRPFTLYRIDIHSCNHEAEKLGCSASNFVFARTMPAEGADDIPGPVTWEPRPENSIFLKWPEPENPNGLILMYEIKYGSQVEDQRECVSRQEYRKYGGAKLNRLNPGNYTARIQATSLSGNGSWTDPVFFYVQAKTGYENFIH
T3 sequence (P06213 28-758 limits assumed, stated change not applied): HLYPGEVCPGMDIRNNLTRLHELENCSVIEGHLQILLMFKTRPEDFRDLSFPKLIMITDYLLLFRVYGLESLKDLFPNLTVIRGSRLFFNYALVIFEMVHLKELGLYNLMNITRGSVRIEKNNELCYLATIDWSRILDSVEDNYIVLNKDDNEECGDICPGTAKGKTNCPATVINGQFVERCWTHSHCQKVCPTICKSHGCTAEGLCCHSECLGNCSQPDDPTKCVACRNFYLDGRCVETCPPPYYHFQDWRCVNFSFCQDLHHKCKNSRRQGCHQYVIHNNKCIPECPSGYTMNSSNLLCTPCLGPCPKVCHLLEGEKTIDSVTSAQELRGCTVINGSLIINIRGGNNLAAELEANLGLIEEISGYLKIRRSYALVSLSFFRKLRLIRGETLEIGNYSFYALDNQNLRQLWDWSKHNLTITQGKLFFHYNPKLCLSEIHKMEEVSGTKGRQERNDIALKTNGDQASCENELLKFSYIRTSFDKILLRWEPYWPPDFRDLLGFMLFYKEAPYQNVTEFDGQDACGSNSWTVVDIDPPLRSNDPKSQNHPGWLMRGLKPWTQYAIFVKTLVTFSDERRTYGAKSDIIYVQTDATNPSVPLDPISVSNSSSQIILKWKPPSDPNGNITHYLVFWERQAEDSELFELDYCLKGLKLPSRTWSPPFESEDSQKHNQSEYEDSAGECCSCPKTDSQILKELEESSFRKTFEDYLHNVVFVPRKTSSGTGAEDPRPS
T3 sequence (P06213 763-956 limits assumed, stated change not applied): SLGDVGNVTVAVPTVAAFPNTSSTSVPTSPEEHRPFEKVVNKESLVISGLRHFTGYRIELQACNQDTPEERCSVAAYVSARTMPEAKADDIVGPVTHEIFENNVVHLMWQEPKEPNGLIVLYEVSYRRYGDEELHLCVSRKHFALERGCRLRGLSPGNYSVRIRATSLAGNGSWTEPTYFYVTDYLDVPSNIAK
T4 sequence (P06213 28-758 limits assumed): as the sequence (P06213 28-758 limits assumed, stated change not applied) above
T4 sequence (P06213 763-956 limits assumed): as the sequence (P06213 763-956 limits assumed, stated change not applied) above
T1 sequence (P06213 28-758 limits assumed): as the sequence (P06213 28-758 limits assumed, stated change not applied) above
T1 sequence (P06213 763-956 limits assumed): as the sequence (P06213 763-956 limits assumed, stated change not applied) above
His-tagged soluble recombinant human IGF-IR (srhIGF-1R-his), sequence (P08069 31-736 limits assumed): as the sequence (P08069 31-736 limits assumed) above
His-tagged soluble recombinant human IGF-IR (srhIGF-1R-his), sequence (P08069 741-935 limits assumed): as the sequence (P08069 741-935 limits assumed) above
T5 sequence (P06213 28-758 limits assumed): as the sequence (P06213 28-758 limits assumed, stated change not applied) above
T5 sequence (P06213 763-1382 limits assumed): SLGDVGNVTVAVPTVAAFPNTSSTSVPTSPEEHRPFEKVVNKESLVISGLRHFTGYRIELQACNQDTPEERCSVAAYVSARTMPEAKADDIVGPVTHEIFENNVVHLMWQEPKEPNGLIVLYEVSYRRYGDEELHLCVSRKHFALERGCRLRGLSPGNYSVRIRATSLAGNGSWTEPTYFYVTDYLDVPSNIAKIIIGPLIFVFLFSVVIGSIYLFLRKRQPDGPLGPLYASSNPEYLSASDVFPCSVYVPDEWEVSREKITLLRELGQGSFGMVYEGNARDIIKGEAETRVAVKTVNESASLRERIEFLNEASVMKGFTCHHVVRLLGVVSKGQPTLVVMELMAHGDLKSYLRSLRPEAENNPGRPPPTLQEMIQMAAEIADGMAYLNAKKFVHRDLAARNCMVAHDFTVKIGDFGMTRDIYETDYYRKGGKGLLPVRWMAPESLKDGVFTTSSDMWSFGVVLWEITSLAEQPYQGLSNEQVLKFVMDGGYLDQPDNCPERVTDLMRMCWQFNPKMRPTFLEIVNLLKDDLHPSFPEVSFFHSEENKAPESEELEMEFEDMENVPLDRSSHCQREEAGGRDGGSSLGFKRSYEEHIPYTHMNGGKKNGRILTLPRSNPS

Compound: 437 (NNNNLGIEGRISEFIEGRAQPAMAFHENFYDWFVRQVSAAAGAPVPYPDPLEPRAA; also: MBP fusion, junction not given here) [Peptide 437]
Act. (activity) (IR): N—N

Result (RUs) (Insulin receptor; Table 12, IR 450 nM pre-incubated with insulin […], A7 (20A4)-MBP 4.1 μM, D8-MBP […], D10-MBP 3.4 μM, 447-MBP 11.5 μM or MBP 13 μM, IR alone 220 RU): 209 RUs
Compound: maltose binding protein [MBP, reference compound]

competition of Site 1 and Site 2 phage on IGF-1R (IGF-1R [2]): competed both Site 1 and Site 2 phage
Compound: CC[C@H](C)[C@@H]1NC(=O)[C@H](CCC(=O)O)NC(=O)[C@@H](NC(=O)[C@H](Cc2c[nH]c3ccccc23)NC(=O)[C@H](CC(C)C)NC(=O)[C@H](Cc2c[nH]c3ccccc23)NC(=O)[C@H](C)NC(=O)[C@H](CCCNC(=N)N)NC(=O)[C@H](CCC(=O)O)NC(=O)[C@H](CCC(N)=O)NC(=O)[C@H](CC(=O)O)NC(=O)[C@H](CC(C)C)NC(=O)[C@@H](N)Cc2c[nH]c3ccccc23)CSSC[C@@H](C(=O)N[C@@H](CC(C)C)C(=O)N[C@@H](CO)C(=O)O)NC(=O)CNC(=O)[C@H](CCCNC(=N)N)NC(=O)CNC(=O)[C@H](CO)NC1=O [Peptide D815]
FDC-P2 Agonist ([1]; FDC-P2 cell proliferation, agonist effect): + | agonist activity at IGF-1R, in words ([1]; FDC-P2 cells): IGF-1R agonist activity | EC50 ([1]; read-out: ED50, agonist activity at IGF-1R, FDC-P2 cells): ~2000 nM | antagonist activity at IGF-1R, in words [3]: no antagonist activity

Hill, sIR-Fc, b-RP9, FRET [4]: −0.69 | competition of Site 1 and Site 2 phage on IGF-1R (IGF-1R [2]): competed both Site 1 and Site 2 phage | Hill, sIR-Fc, b-S175, FRET [8]: −0.45 | Hill, sIR, FITC-RP9, FP [9]: −0.29 | binding to IGF-1R compared with IR, in words (IGF-1R [10]): lower binding ratios for IGF-1R over IR | potency / affinity at IR, in words [13]: slightly less potent | Hill, sIR-Fc, FITC-RP9, FP [13]: −0.41
Compound: GSLDESFYDWFERQLGKK [Peptide S371]
MCF-7 Agonist (MCF-7 cells [5]): No | agonist activity at IGF-1R, in words ([1]; FDC-P2 cells): no agonist activity | Class ([1]; IGF-1R agonist or antagonist): N | MiaPaCa Antagonist (MiaPaCa cells [6]): No | MiaPaCa Agonist (MiaPaCa cells [7]): No | MCF-7 Antagonist (MCF-7 cells [11]): No | FDC-P2 Antagonist [3]: + | EC50 [3]: ~7000 nM | FFC ([12]; FFC assay potency grade, 0, + to ++++++, −): + | FFC ([12]; Table 5, free fat cell assay): + | FFC ([12]; Table 6, free fat cell assay): +

% Binding (Insulin receptor; Table 13, peptide about 40 μM, IR 450 nM, IR alone 100): 33%
Compound: KWLDQEWAWVQCEVYGRGCPSKK [Peptide D8]

Compound: CC(C)C[C@@H]1NC(=O)[C@@H](NC(=O)[C@H](CO)NC(=O)[C@H](Cc2ccc(O)cc2)NC(=O)[C@H](Cc2ccccc2)NC(=O)[C@@H](N)CO)CSSC[C@@H](C(=O)N[C@@H](CCCNC(=N)N)C(=O)N[C@@H](CCCCN)C(=O)N[C@@H](CCCCN)C(=O)O)NC(=O)CNC(=O)[C@H](CC(=O)O)NC(=O)[C@H](Cc2c[nH]c3ccccc23)NC(=O)[C@H](CCC(N)=O)NC(=O)CNC(=O)[C@H](CCCNC(=N)N)NC(=O)[C@H](CO)NC(=O)[C@H](CCCCN)NC(=O)[C@H](CCC(=O)O)NC(=O)[C@H](C)NC(=O)[C@@H]2CCCN2C(=O)CNC(=O)[C@H](CC(N)=O)NC(=O)[C@H](C(C)C)NC(=O)[C@H](CC(C)C)NC(=O)[C@H](CO)NC(=O)[C@H](CCC(=O)O)NC1=O [RP33-IGF with KK]
IC50 [14]: 9 nM | IC50 (MiaPaCa cells [6]; MiaPaCa): 700 nM | IC50 (MCF-7 cells [11]; MCF-7): 100 nM | Activ. (MCF-7 cells [11]; proliferation assays in the presence of IGF-1 using MCF-7 and MiaPaCa cells): Antag.

Hill, sIR-Fc, b-RP9, FRET [4]: −1.03 | stimulation of autophosphorylation of IR [15]: stimulate autophosphorylation | Hill, sIR-Fc, b-S175, FRET [8]: −0.82 | Hill, sIR, FITC-RP9, FP [9]: −0.49 | binding to IGF-1R compared with IR, in words (IGF-1R [10]): lower binding ratios for IGF-1R over IR | potency / affinity at IR, in words [13]: slightly less potent | Hill, sIR-Fc, FITC-RP9, FP [13]: −0.27
Compound: FHENFYDWFVRQVSKK [Peptide H2C]
effect on the rate of dissociation of b-20E2 from IGF-1R (IGF-1R [16]): dissociation rates of b-20E2 were similar | FFC ([12]; free fat cell assay class, Table 9): +

Compound: CC(C)C[C@H](NC(=O)[C@H](CS)NC(=O)[C@H](CO)NC(=O)[C@H](Cc1ccc(O)cc1)NC(=O)[C@H](Cc1ccccc1)NC(=O)[C@@H](N)[C@@H](C)O)C(=O)N[C@@H](C)C(=O)N[C@@H](CO)C(=O)N[C@@H](CC(C)C)C(=O)N[C@@H](CC(C)C)C(=O)N[C@H](C(=O)NCC(=O)N[C@H](C(=O)N1CCC[C@H]1C(=O)N[C@@H](CCC(N)=O)C(=O)N1CCC[C@H]1C(=O)N[C@@H](CC(N)=O)C(=O)N[C@@H](CCCNC(=N)N)C(=O)NCC(=O)N1CCC[C@H]1C(=O)N[C@@H](Cc1c[nH]c2ccccc12)C(=O)N[C@@H](CCC(=O)O)C(=O)N[C@@H](CCCNC(=N)N)C(=O)N[C@@H](CS)C(=O)N[C@@H](CCCNC(=N)N)C(=O)O)[C@@H](C)O)[C@@H](C)O [RP6] (H-TFYSCLASLLTGTPQPNRGPWERCR-OH; N-terminus and C-terminus assumed)
agonist activity at IGF-1R, in words ([1]; FDC-P2 cells): no agonist activity | effect on the rate of dissociation of b-20E2 from IGF-1R (IGF-1R [16]): dissociation rates of b-20E2 were similar | MiaPaCa Antagonist (MiaPaCa cells [6]): No | MiaPaCa Agonist (MiaPaCa cells [7]): No | MCF-7 Antagonist (MCF-7 cells [11]): + | FDC-P2 Antagonist [3]: + | antagonist activity at IGF-1R, in words [3]: acted as an antagonist | EC50 [3]: ~1000 nM
